Test [1] has as its target T1, LTD4 receptor (Cavia porcellus, UniProt Q2NNR5).
T1 construct: guinea pig pulmomembranous protein; from tissue; host or cells: guinea pig lung membranes
T1 sequence (Q2NNR5 1-340): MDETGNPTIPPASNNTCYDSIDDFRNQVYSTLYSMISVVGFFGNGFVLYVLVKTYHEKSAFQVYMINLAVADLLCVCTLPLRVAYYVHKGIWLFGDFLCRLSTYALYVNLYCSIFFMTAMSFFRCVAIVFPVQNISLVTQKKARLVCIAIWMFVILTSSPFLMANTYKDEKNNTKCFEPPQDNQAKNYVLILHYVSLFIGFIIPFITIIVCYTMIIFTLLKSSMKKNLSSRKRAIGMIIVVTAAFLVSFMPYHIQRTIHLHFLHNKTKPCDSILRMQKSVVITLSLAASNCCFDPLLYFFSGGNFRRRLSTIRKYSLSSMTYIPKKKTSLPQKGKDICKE
Put plainly: LTD4 receptor binding inhibition test ([^3 H]leukotriene D4, guinea pig pulmomembranous protein). The settings on record: for Kd: read-out: LTD4 receptor, dissociation constant KD. An outline of the steps:
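Filtration binding with [3H]LTD4 on guinea pig lung membranes; reaction stopped with ice-cold Tris-HCl/NaCl buffer (10 mM/100 mM, pH 7.5), bound radioactivity by scintillation counting. Nonspecific binding defined with 2 μM leukotriene D4. IC50 from dose-response, converted to dissociation constant by Cheng-Prusoff.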

The subject of test [2] is leukotriene D4. Put plainly: Anti-LTD4 action in vivo, Evans Blue transudation in back skin after intracutaneous leukotriene D4. The settings on record: Cavia porcellus, po, 1 h; orally 10 mg/kg, one hour before; leukotriene D4 0.5 μg/ml, 0.1 ml intracutaneously; read-out: Anti-LTD4 action (%), inhibition rate. Set-up: species or system male Hartley guinea pig. The protocol:
(§1) Antihistaminic Action and Anti-LTD4 Action (In vivo Tests)
(§2) After the hair on the back of a male Hartley guinea pig was cut off, a test compound was orally administered at 10 mg/kg. One hour later, 5% Evans Blue solution was intravenously administered at 1 ml/kg and immediately after that, a 0.3 μg/ml solution of histamine and a 0.5 μg/ml solution of leukotriene D4 were intracutaneously administered each in an amount of 0.1 ml to the back. Thirty minutes later, the guinea pig was sacrificed under exsanguination, the skin was cut off, and the transudated color was quantitated by extraction. To a control, 0.5% CMC (carboxylmethylcellulose) was orally administered and the subsequent procedures were repeated likewise. From the difference in the amount of the transudated color between the control and the group administered with the test compound, an inhibition rate was calculated.

The target of test [3] is T2, H1 receptor (Cavia porcellus, UniProt P31389).
T2 construct: guinea pig cerebromembranous protein; from tissue; host or cells: guinea pig cerebral (brain) membranes
T2 sequence (P31389 whole entry): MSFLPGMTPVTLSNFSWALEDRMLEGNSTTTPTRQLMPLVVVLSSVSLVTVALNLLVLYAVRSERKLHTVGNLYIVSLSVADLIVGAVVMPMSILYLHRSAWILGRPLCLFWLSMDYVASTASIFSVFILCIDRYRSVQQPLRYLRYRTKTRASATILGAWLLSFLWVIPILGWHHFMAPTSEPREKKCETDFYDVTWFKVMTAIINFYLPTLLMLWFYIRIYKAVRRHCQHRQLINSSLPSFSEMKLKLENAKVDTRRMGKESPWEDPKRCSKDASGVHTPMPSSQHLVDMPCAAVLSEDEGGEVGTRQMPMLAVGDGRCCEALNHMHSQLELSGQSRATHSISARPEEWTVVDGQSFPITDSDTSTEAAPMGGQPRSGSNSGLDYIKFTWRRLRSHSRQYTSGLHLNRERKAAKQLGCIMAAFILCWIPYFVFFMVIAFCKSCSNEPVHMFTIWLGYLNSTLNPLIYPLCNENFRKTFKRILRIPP
Put plainly: H1 receptor binding inhibition test ([^3 H]mepyramin, guinea pig cerebromembranous protein). The note with it: for inhibition at 100 µM: a: 100 μM, read-out: H1 receptor (%), inhibition rate. An outline of the steps:
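[³H]Mepyramine binding to guinea pig brain membranes was stopped with ice-cold phosphate buffer and filtered, and bound radioactivity was measured by liquid scintillation. Nonspecific binding was defined with 10^-4 M R(-)dimethindene. IC50 came from concentration-response data and was converted to a dissociation constant by Cheng-Prusoff.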

Test [4] has as its system histamine (H1). Put plainly: Antihistaminic (anti-H1) action in vivo, Evans Blue transudation in back skin after intracutaneous histamine. Set-up: species or system male Hartley guinea pig. The settings on record: orally 10 mg/kg, one hour before; histamine 0.3 μg/ml, 0.1 ml intracutaneously. The protocol: as §1, §2
The test system of test [5] is isolated guinea pig ileum (leukotriene D4). Put plainly: Anti-LTD4 action (in vitro), inhibition of leukotriene D4-induced contraction of isolated ileum. In kind it is cell-based. The note with it: Cavia porcellus; for inhibition at 10 µM: 0.5 h, 10^-5 M, 30 minutes incubation, 37° C., read-out: Anti-LTD4 action (%), contraction inhibition rate; for IC50: isolated guinea pig ileum, leukotriene D4. Here is the method:
(§3) Antihistaminic Action and Anti-LTD4 Action (In vitro Tests)
(§4) An isolated guinea pig ileum was cut into about 2 cm lengths. Each ileum piece was suspended in a 20-ml container filled with the Krebs buffer. An isotonic contractive response by histamine or leukotriene D4 was recorded on a recorder. The Krebs buffer was controlled at 37° C., through which a mixed gas (95%O2 -5%CO2) was bubbled. First, histamine or leukotriene D4 was added to an organ bath to measure its dose-response. After the ileum piece was washed several times with the buffer, a test compound (will be identified by its example number; this will apply likewise hereinafter) of a predetermined specific concentration was added. Subsequent to incubation for 30 minutes, the dose-response of histamine or leukotriene D4 was measured again. Incidentally, in Table 7, the values (%) indicate contraction inhibition rate at 10^-5 M, while the values in parentheses show pD'2 values in the case of antihistaminic action and IC50 values in the case of anti-LTD4 action.

Test [6] concerns the target T3, isolated guinea pig ileum (histamine) (Cavia porcellus, UniProt P31389).
T3 construct: An isolated guinea pig ileum was cut into about 2 cm lengths; from tissue; host or cells: isolated guinea pig ileum
Put plainly: Antihistaminic action (in vitro), inhibition of histamine-induced contraction of isolated ileum. It is filed as cell-based. The note with it: for inhibition at 10 µM: 10^-5 M, 30 minutes incubation, 37° C., read-out: Antihistaminic (%), contraction inhibition rate. The protocol: as §3, §4

For test [7], the system named is cortical edema. The note with it: intravenous administration after occurrence of ischemia; cited from earlier work.

T3 sequence (P31389 whole entry): as above

In the case of `O=C1CSc2cc(OCc3cccc(OCc4ccc5ccccc5n4)c3)ccc2N1` [Example 10, 7-[3-(2-Quinolinylmethoxy)benzyloxy]-3,4-dihydro-2H-1,4-benzothiazin-3-one], the Kd – broadly, a measure of binding affinity in units of concentration – in test [1] worked out at 12.5 nM. The inhibition in vivo at 10 mg/kg in test [2] stood at 32%. The inhibition (as a rule, the percentage by which the read-out fell short of the control) at 100 µM in test [3] was 50%. Besides, the “Anti-H1 action (%), inhibition rate” value in test [4] is 36%.

For `CC1(C)C(=O)Nc2cc(OCc3cccc(OCc4ccc5ccccc5n4)c3)ccc21` [Example 15], the inhibition at 10 µM in test [1] (b: 10 μM, read-out: LTD4 receptor (%), inhibition rate) is 37%. In test [2], the inhibition in vivo at 10 mg/kg came out at 37%. The inhibition at 100 µM in test [3] was found to be 36%. Further, the “Anti-H1 action (%), inhibition rate” value in test [4] was 17%.

Regarding `CC1(C)C(=O)Nc2c(OCc3cccc(OCc4ccc5ccccc5n4)c3)cccc21` [Example 17, 3,3-Dimethyl-7-[3-(2-quinolinylmethoxy)benzyloxy]-2,3-dihydro-1H-indol-2-one], in test [1], the Kd was 202 nM. For the same compound, the values for the inhibition at 10 µM in test [5] and in test [6] were 96% and 100%, respectively. In addition, in test [5], the IC50 (in general, the concentration that inhibits the measured activity by half) is 1500 nM. Further, in test [2], the inhibition in vivo at 10 mg/kg worked out at 21%. Further, the inhibition at 100 µM in test [3] worked out at 40%. Moreover, in test [4], the “Anti-H1 action (%), inhibition rate” value was found to be 19%. Further, in test [6] (isolated guinea pig ileum, histamine, 30 min), the “pD'2 (antihistaminic action)” value is 5.35.

Take `CC1(C)C(=O)Nc2c(OCc3ccc(OCc4ccc5ccccc5n4)cc3)cccc21` [Example 30, 3,3-Dimethyl-7-[4-(2-quinolinylmethoxy)benzyloxy]-2,3-dihydro-1H-indol-2-one]: the Kd in test [1] was determined as 200 nM. Besides, the inhibition in vivo at 10 mg/kg in test [2] came out at 44%. The inhibition at 100 µM in test [3] turned out to be 32%. Further, in test [4], the “Anti-H1 action (%), inhibition rate” value is listed as 40%.

In the case of `O=C1CCc2ccc(OCc3ccc(OCc4ncc5ccccc5n4)cc3)cc2N1` [Example 35, 7-[4-(2-quinazolinylmethoxy)benzyloxy]-1,2,3,4-tetrahydroquinolin-2-one], the Kd in test [1] was 209 nM; in test [3] (read-out: H1 receptor, dissociation constant KD), 87900 nM. The inhibition at 10 µM in test [5] was found to be 87%; in test [6] it was 16%. The IC50 in test [5] came to 1700 nM. The inhibition in vivo at 10 mg/kg in test [2] was found to be 11%.

As to `CCCc1c(OCC(O)COc2ccc3c(=O)cc(C(=O)O)oc3c2CCC)ccc(C(C)=O)c1O` (stereo not drawn) [FPL55712], the “increase and aggravation of cortical edema” value in test [7] is recorded as “significantly inhibited”.

Values taken from patent US5885987A, “Phenylene derivatives” (Kowa Co., Ltd., priority 1996, dated 1999).
